Experimental data taken from patent publication US6933396B2, “Process to prepare psorospermin” (Cylene Pharmaceuticals, priority 2002, dated 2005).

Key:
various tumor cell lines = assay: MTS cytotoxicity / cell viability assays with various tumor cell lines; assay type: cell-based
Excerpt: FIG. 1 illustrates a comparison of (R,R)-psorospermin with (R,R)-5-methoxy-psorospermin, (R,S)-5-methoxy-psorospermin, (S,R)-5-methoxy-psorospermin and (S,S)-5-methoxy-psorospermin in cell viability assays with various tumor cell lines.
MTS cytotoxicity data was collected for a comparison of (R,R)-psorospermin with (R,R)-5-methoxy-psorospermin, (R,S)-5-methoxy-psorospermin, (S,R)-5-methoxy-psorospermin and (S,S)-5-methoxy-psorospermin in cell viability assays with various tumor cell lines, the results of which are shown in FIG. 1.

[1] = Blood plasma levels (pharmacokinetics) after i.v. injection in rats; assay type: in vivo, Sprague Dawley rats; details: for blood plasma levels of parent compound: over 24 h
Protocol: Blood plasma levels of psorospermin over 24 h after a 5 mg/Kg injection i.v. in Sprague Dawley rats were measured. Blood plasma levels of 5-methoxy-psorospermin over 24 h after a 5 mg/Kg injection i.v. in Sprague Dawley rats were measured.

[2] = 5 mg/Kg injection i.v., Sprague Dawley rats

COc1cccc2c(=O)c3c(OC)cc4c(c3oc12)C[C@H]([C@@]1(C)CO1)O4 [(R,R)-5-Methoxypsorospermin, (2′R,3′R) 5-Methoxy Psorospermin]
activity relative to stereoisomeric counterparts (various tumor cell lines; compared with (2R′, 3S′) or (2S′, 3S′) counterparts): more active than their (2R′, 3S′) or (2S′, 3S′) counterparts
antitumor activity in a variety of cell lines (various tumor cell lines; variety of cell lines including those of solid tumors and lymphomas, compared with natural product psorospermin): comparable antitumor activity to that of the natural product psorospermin
time for which a therapeutic dose is exhibited in rodents ([1]; 5 mg/Kg injection i.v., Sprague Dawley rats, FIG. 3): exceeds two hours
blood plasma levels of parent compound [1, 2]: prolonged measurable quantities of the parent with a good half life
systemic presence ([1]; in comparison with 2′R,3′R psorospermin): prolonged systemic presence in comparison with 2′R,3′R psorospermin

COc1cc2c(c3oc4c(O)cccc4c(=O)c13)C[C@H]([C@@]1(C)CO1)O2 [psorospermin, (2′R,3′R) Psorospermin]
blood plasma levels of parent compound [1, 2]: Little parent compound can be detected within the first 24 h after dosing
blood plasma levels of parent compound ([1]; 5 mg/Kg injection i.v., Sprague Dawley rats, listed as natural product): could be barely detected at any time point
